Test results: ChEMBL document CHEMBL1141847, “A new antibiotic nortriterpene quinone methide from Maytenus catingarum” (1999)
In brackets after ≈: the same amount, converted by molar mass. Activity calls are given as the source filed them. No cut-off for these calls is given here.

Tests used:
Bacillus subtilis = assay: Antimicrobial activity against Bacillus subtilis CECT39; assay type: functional
Staphylococcus aureus = assay: Antimicrobial activity against Staphylococcus aureus ATCC 6538; assay type: functional
Salmonella typhimurium = assay: Antimicrobial activity against sSalmonella Typhimurium UBC1; assay type: functional, organism-based; details: Salmonella enterica subsp. enterica serovar Typhimurium
Candida albicans = assay: Antimicrobial activity against Candida albicans UBC2; assay type: functional, organism-based
Escherichia coli = assay: Antimicrobial activity against Escherichia coli CECT99; assay type: functional, organism-based

MIC (Bacillus subtilis): 1.25 µg/mL (≈ 2.53 µM)
MIC (Staphylococcus aureus): 5 µg/mL (≈ 10.1 µM)
SMILES: COC(=O)[C@@]1(C)C[C@@H]2[C@](C)(CC1=O)C[C@H](O)[C@]1(C)C3=CC=C4C(=CC(=O)C(O)=C4C)[C@]3(C)CC[C@@]21C
Activity (Salmonella typhimurium): inactive
Activity (Candida albicans): inactive
Activity (Escherichia coli): inactive
